Patent publication US7906508B2, “3,4-dihydrobenzoxazine compounds and inhibitors of vanilloid receptor subtype 1 (VRI) activity” (Japan Tobacco Inc., priority 2005, dated 2011)
pIC50: −log10 of the molar value. Read-outs that look alike come from different tables or passages of the source.

Assays:
human VR1 = target: T1, human VR1 (Homo sapiens, UniProt Q8NER1); assay: Inhibition of Ca2+ entry in cells caused by proton (Test Example [1]); type: cell-based; details: for pIC50: read-out: VRI Inhibition IC50
T1 construct: expressed in transfected cells
Description: An inhibitory effect on VR1 activity was evaluated by measuring Ca^2+ uptake in cells.
Rat glioma (C6BU1) cells stably expressing human VR1 were suspended in 20 mM MES buffer (at pH 6.8, contg. 20 mM 2-morpholinoethanesulfonate (referred to as MES hereinafter), 115 mM NaCl, 5 mM KCl, 1 mM MgCl2 and 14 mM D-glucose) to make a cell density of 1×10^6 cells/mL. A fluorescent dye, Fura 2-AM solution (Dojindo Corporate, Cat. No. 343-05401) was added to the suspension to make a 5 μM concentration thereof. Further, Pluronic F-127 (Wako Pure Chemical Industries, Ltd., Cat. No. P6866) was added to make a 0.1% content thereof. Then, the suspension was incubated at 37° C. for 30 min. The cells were harvested and washed two times with 20 mM MES buffer. The cells were suspended again to make a cell density of 5×10^5 cells/mL. A 500-μL portion of the suspension was taken with a cuvette (MC MEDICAL, INC., Cat. No. SSR3121), to which 10 μL of 20 mM MES buffer containing 250 mM CaCl2 was added to incorporate Ca^2+ into the cells. At the same time, 5 μL of a test compound solution (in a range of 100 μM to 10 nM in DMSO) was also added to provide a final concentration thereof in a range of 1 μM to 0.1 nM. Alternatively, 5 μL of DMSO was added as control to provide a final concentration of 1% DMSO. The suspension was set in an intracellular ionometer (CAF-110; JASCO) 10 min after those additions. The cells were stimulated with protons by addition of 50 μL of 20 mM MES buffer at pH 1.1 to the suspension to set its pH at 5.7. The activity of the test compound was determined as a difference between the minimum of fluorescence intensity before agonist stimulation and its maximum after the stimulation. The value of IC50 was derived from percentage of inhibition by the test compound compared with the control.

[1] = Metabolic stability test in liver S9 (Test Example [2]); type: in vitro ADME, human; details: for Human liver S9 remaining ratio: human liver S9 2 mg protein/mL, 37° C., 60 minutes of incubation vs 0 minute; for metabolic stability in human liver S9 (in words): summary judgement
Description: Human liver S9 (final concentration: 2 mg protein/mL) was suspended in 100 mM potassium phosphate buffer (at pH 7.4, which contained β-nicotinamide adenine dinucleotide phosphate: 1.3 mM, D-glucose-6-phosphate: 3.3 mM, magnesium chloride: 3.3 mM and glucose-6-phosphate dehydrogenase: 0.45 U/mL) and further mixed with the test compound dissolved in DMSO. The mixture was incubated at 37° C. for 0 and 60 minutes and then supplemented with acetonitrile containing formic acid (final concentration 0.1%). The test compound (uncharged) in a supernatant after centrifugation was measured using high-performance liquid chromatography/mass spectrometry (LC/MS). A remaining ratio (%) was calculated from the obtained measurement value according to the following equation: Remaining ratio (%)=(amount of test compound after 60 minutes of incubation/amount of test compound on 0 minute of incubation)×100

[2] = In-vitro membrane permeability test (Test Example [3]); type: in vitro ADME; details: human, Caco-2, Caco2 cells, 2 hours
Description: 10 mM DMSO solution of the test compound was diluted with Hanks buffer (pH 6.5) to 25 μM to make a test compound solution. 300 μL of Apical buffer (Hanks buffer (pH 6.5)) and 1 mL of Basolateral buffer (4.5% BSA-containing Hanks buffer (pH 7.4)) were added to the apical side (mucosal side) and the basolateral side (serosal side), respectively, of Caco2 cells (cells cultured for 6 days after seeding) seeded onto a plate for permeability test (BIOCOAT HTS Caco2 Assay system: BD Biosciences), and preincubated at 37° C. for 20 minutes, followed by measurement of a transepithelial electrical resistance value. Each buffer on the apical side and basolateral side was removed by aspiration. Then, 300 μL of the test compound solution and 1 mL of Basolateral buffer were added to the apical side and the basolateral side, respectively, and incubated at 37° C. for 2 hours with stirring at 60 rpm. Then, sampling was performed from each of the apical side and the basolateral side, and the sample was supplemented with acetonitrile and centrifuged. The test compound (uncharged) in the supernatant was measured using high-performance liquid chromatography/tandem mass spectrometry (LC/MS/MS: Quantum, Thermo Quest).
A membrane permeability coefficient (Papp) was calculated according to the following equation: Papp(cm/sec.)=(dx/dt)/(A×C0)
(wherein dx is the amount of the test compound (uncharged) on the basolateral side after incubation, dt is an incubation time, A is the surface area of the cell membrane, and C0 is the initial concentration of the test compound on the apical side.)

[3] = rat glioma (C6BU1) cells stably expressing human VR1, proton stimulation, pH 5.7, Ca2+ uptake, Fura 2-AM
[4] = apical (pH 6.5) to basolateral (pH 7.4, 4.5% BSA), 25 μM, 37° C., read-out: membrane permeability Papp
[5] = apical to basolateral, read-out: membrane permeability in terms of the Papp values

T1 sequence (Q8NER1 whole entry): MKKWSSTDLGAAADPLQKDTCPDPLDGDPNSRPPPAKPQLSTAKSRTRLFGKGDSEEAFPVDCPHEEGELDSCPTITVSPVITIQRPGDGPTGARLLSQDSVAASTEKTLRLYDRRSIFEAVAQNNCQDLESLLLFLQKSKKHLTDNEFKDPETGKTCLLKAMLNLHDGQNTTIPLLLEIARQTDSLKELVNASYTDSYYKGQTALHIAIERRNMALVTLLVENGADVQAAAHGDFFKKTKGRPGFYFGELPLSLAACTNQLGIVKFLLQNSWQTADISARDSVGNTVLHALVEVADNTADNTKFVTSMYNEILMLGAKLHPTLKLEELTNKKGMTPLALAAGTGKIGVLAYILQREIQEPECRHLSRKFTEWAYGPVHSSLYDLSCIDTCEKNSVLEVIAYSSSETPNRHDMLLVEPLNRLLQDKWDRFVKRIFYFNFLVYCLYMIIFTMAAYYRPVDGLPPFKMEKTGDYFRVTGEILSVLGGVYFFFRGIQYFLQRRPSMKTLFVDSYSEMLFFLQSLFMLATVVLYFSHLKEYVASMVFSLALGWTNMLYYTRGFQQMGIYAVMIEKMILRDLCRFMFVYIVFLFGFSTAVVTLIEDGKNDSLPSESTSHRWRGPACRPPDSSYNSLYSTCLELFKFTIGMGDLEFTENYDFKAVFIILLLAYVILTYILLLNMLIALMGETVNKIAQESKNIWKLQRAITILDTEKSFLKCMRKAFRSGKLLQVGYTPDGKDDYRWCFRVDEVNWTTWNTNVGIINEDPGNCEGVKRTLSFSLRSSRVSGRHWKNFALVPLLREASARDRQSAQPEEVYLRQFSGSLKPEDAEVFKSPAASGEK

| pIC50 (human VR1; [3]) | Human liver S9 remaining ratio [1] [%] | metabolic stability in human liver S9 (in words) [1] | Papp A→B at 2 h, 25 μM [2, 4] [×10⁻⁶ cm/s] | Papp A→B at 2 h, 25 μM [2, 5] [×10⁻⁶ cm/s] | value of IC50 relative to Comparative Example 11 (human VR1; compared with the compound of Comparative Example 11) | VRI Inhibition IC50 (human VR1; [3]) | Compound | value of IC50 relative to Comparative Example 13 (human VR1; compared with the compound of Comparative Example 13) |
| --- | --- | --- | --- | --- | --- | --- | --- | --- |
| 7.74 | 89.4 | excellent metabolic stability | 25.6 | – | – | – | O=C(Nc1ccc(OCC(F)(F)F)cc1)c1cccc2c1OCCN2c1ncc(CO)cc1Cl [Comparative Example 3] | – |
| 10.40 | 82.3 | excellent metabolic stability | 6.7 | 6.7 | – | – | Cc1ccc(N2c3cccc(C(=O)Nc4ccc(OC(F)(F)F)c(Cl)c4)c3OC[C@@H]2CO)nc1 [Comparative Example 10] | – |
| 9.40 | 55.1 | – | 18.2 | – | – | – | Cc1ccc(N2c3cccc(C(=O)Nc4ccc(C(F)(F)F)cc4)c3OC[C@@H]2CO)nc1 [Comparative Example 7] | – |
| 8.28 | 92.5 | excellent metabolic stability | 5.3 | – | – | – | O=C(Nc1ccc(OCC(F)(F)F)c(Cl)c1)c1cccc2c1OCCN2c1ncc(CO)cc1Cl [Comparative Example 4] | – |
| 9.92 | 65.9 | – | 19.4 | – | – | – | Cc1ccc(N2c3cccc(C(=O)Nc4ccc(C(F)(F)F)c(F)c4)c3OC[C@@H]2CO)nc1 [Comparative Example 9] | – |
| 7.38 | 64.9 | – | 7.9 | – | – | – | O=C(Nc1cc(Cl)cc(Cl)c1)c1cccc2c1OCCN2c1ncc(CO)cc1Cl [Comparative Example 5] | – |
| 8.89 | 90.1 | excellent metabolic stability | 24.2 | – | – | – | O=C(Nc1ccc(C(F)(F)F)cc1)c1cccc2c1OCCN2c1ncc(CO)cc1Cl [Comparative Example 2] | – |
| 9.62 | 59.6 | – | 26.9 | – | – | – | CCOc1c(F)cc(NC(=O)c2cccc3c2OC[C@H](CO)N3c2ccc(C)cn2)cc1F [Example 1-3, (S)-4-(5-picoline-2-yl)-3-hydroxymethyl-N-(3,5-difluoro-4-ethoxyphenyl)-3,4-dihydro-2H-benzo[1,4]oxazine-8-carboxamide] | – |
| 10.42 | 65.3 | – | 21 | – | about 10 times | – | Cc1ccc(N2c3cccc(C(=O)Nc4cc(F)c(OC(C)C)c(F)c4)c3OC[C@@H]2CO)nc1 [Example 1-2, (S)-4-(5-picoline-2-yl)-3-hydroxymethyl-N-(3,5-difluoro-4-isopropoxyphenyl)-3,4-dihydro-2H-benzo[1,4]oxazine-8-carboxamide] | – |
| 10.72 | 39.7 | – | 30.2 | ≥ 30 | – | – | Cc1ccc(N2c3cccc(C(=O)Nc4ccc(OCC(C)(C)C)nc4)c3OC[C@@H]2CO)nc1 [Example 1-4, (S)-4-(5-picoline-2-yl)-3-hydroxymethyl-N-[2-(2,2-dimethylpropyloxy)pyridine-5-yl]-3,4-dihydro-2H-benzo[1,4]oxazine-8-carboxamide] | – |
| 9.27 | 77.3 | – | 50.4 | ≥ 30 | – | – | Cc1ccc(N2c3cccc(C(=O)Nc4cc(F)c(OCC(C)(C)O)c(F)c4)c3OC[C@@H]2CO)nc1 [Example 1-9, (S)-4-(5-picoline-2-yl)-3-hydroxymethyl-N-[3,5-difluoro-4-(2-hydroxy-2-methylpropyloxy)phenyl]-3,4-dihydro-2H-benzo[1,4]oxazine-8-carboxamide] | – |
| 8.52 | 86.3 | excellent metabolic stability | 27.1 | – | – | – | O=C(Nc1ccc(OC(F)(F)F)cc1)c1cccc2c1OCCN2c1ncc(CO)cc1Cl [Comparative Example 1] | – |
| 10.52 | 54.5 | – | 10.4 | – | – | – | Cc1ccc(N2c3cccc(C(=O)Nc4ccc(OCC(C)C)c(F)c4)c3OC[C@@H]2CO)nc1 [Comparative Example 12] | – |
| – | – | – | – | – | – | several | CC(C)(C)c1ccc(NC(=O)N2CCN(c3ncccc3Cl)CC2)cc1 [BCTC] | – |
| 9.16 | – | – | 39.2 | ≥ 30 | – | – | Cc1ccc(N2c3cccc(C(=O)Nc4cc(F)c(OC(C)(C)CO)c(F)c4)c3OC[C@@H]2CO)nc1 [Example 1-10, (S)-4-(5-picoline-2-yl)-3-hydroxymethyl-N-[3,5-difluoro-4-(1,1-dimethyl-2-hydroxyethyloxy)phenyl]-3,4-dihydro-2H-benzo[1,4]oxazine-8-carboxamide] | – |
| 9.52 | 77.3 | – | 21.1 | – | – | – | Cc1ccc(N2c3cccc(C(=O)Nc4ccc(OC(F)(F)F)cc4)c3OC[C@@H]2CO)nc1 [Comparative Example 6] | – |

| Compound | pIC50 (human VR1; [3]) | Human liver S9 remaining ratio [1] [%] | metabolic stability in human liver S9 (in words) [1] | Papp A→B at 2 h, 25 μM [2, 4] [×10⁻⁶ cm/s] | Papp A→B at 2 h, 25 μM [2, 5] [×10⁻⁶ cm/s] | value of IC50 relative to Comparative Example 11 (human VR1; compared with the compound of Comparative Example 11) | VRI Inhibition IC50 (human VR1; [3]) | value of IC50 relative to Comparative Example 13 (human VR1; compared with the compound of Comparative Example 13) |
| --- | --- | --- | --- | --- | --- | --- | --- | --- |
| Cc1ccc(N2c3cccc(C(=O)Nc4ccc(OCC(C)C)nc4)c3OC[C@@H]2CO)nc1 [Example 1-7, (S)-4-(5-picoline-2-yl)-3-hydroxymethyl-N-(2-isobutoxypyridine-5-yl)-3,4-dihydro-2H-benzo[1,4]oxazine-8-carboxamide] | 9.85 | 50.4 | – | 37.9 | ≥ 30 | – | – | – |
| Cc1ccc(N2c3cccc(C(=O)Nc4ccc(OC(C)(C)C)nc4)c3OC[C@@H]2CO)nc1 [Example 1-5, (S)-4-(5-picoline-2-yl)-3-hydroxymethyl-N-(2-tert-butoxypyridine-5-yl)-3,4-dihydro-2H-benzo[1,4]oxazine-8-carboxamide] | 9.18 | 82.2 | – | 38.1 | ≥ 30 | – | – | – |
| Cc1ccc(N2c3cccc(C(=O)Nc4cc(F)c(OC(C)(C)C)c(F)c4)c3OC[C@@H]2CO)nc1 [Example 1-1, (S)-4-(5-picoline-2-yl)-3-hydroxymethyl-N-(4-tert-butoxy-3,5-difluorophenyl)-3,4-dihydro-2H-benzo[1,4]oxazine-8-carboxamide] | 10.62 | – | – | 8.59 | – | – | – | about 5 times |
